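Briefly, cells in 96-well plates were exposed to five compound concentrations for 48 h, and endpoints were estimated by linear interpolation. Abbreviation: GI50, concentration required for 50% inhibition of growth.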 Calls of active or inactive are those of the source. No stated cut-off is given here; in the data, active = GI50 up to about 1.1 µM and inactive = higher.
Experiments:
Assay in all cases: NCI anticancer screen, dose series, 48 h
[1] = system: A549
[2] = system: ACHN
[3] = system: CAKI-1
[4] = system: COLO 205
[5] = system: EKVX
[6] = system: HCC 2998
[7] = system: HCT-15
[8] = system: HOP-62
[9] = system: HT-29
[10] = system: IGROV-1
[11] = system: KM12
[12] = system: LXFL 529
[13] = system: Malme-3M
[14] = system: NCI-H226
[15] = system: SF-539
[16] = system: UACC-257
[17] = system: RXF 393

SMILES | GI50 [1] | GI50 [2] | GI50 [3] | GI50 [4] | GI50 [5] | GI50 [6] | GI50 [7] | GI50 [8] | GI50 [9] | GI50 [10] | GI50 [11] | GI50 [12] | GI50 [13] | GI50 [14] | GI50 [15] | GI50 [16] | GI50 [17]
O=C(Cc1nc2ccc(C(=O)c3ccccc3)cc2nc1O)C(=O)Nc1ccc(C(F)(F)F)cc1[N+](=O)[O-] | > 100 µM (inactive) | > 100 µM (inactive) | 30.8 µM (inactive) | 45 µM (inactive) | 11.7 µM (inactive) | > 100 µM (inactive) | > 100 µM | 91.8 µM (inactive) | 50.9 µM (inactive) | > 100 µM (inactive) | 59 µM (inactive) | 35.8 µM (inactive) | > 100 µM (inactive) | 87.1 µM (inactive) | 53.3 µM (inactive) | > 100 µM (inactive) | 
COC1(OC)CC2C(=O)N(Cc3ccccc3)C1C(S(=O)(=O)c1ccccc1)C2C(C)S(=O)(=O)c1ccccc1 (centres undefined) | > 100 µM (inactive) | > 100 µM (inactive) | > 100 µM (inactive) | > 100 µM (inactive) | 85.5 µM (inactive) | > 100 µM (inactive) | > 100 µM | > 100 µM (inactive) | > 100 µM (inactive) | > 100 µM (inactive) | > 100 µM (inactive) | > 100 µM (inactive) | > 100 µM (inactive) |  | > 100 µM (inactive) | > 100 µM (inactive) | > 100 µM (inactive)
COc1ccc(-c2nc(Sc3c([N+](=O)[O-])ncn3C)n[nH]2)cc1 | 12.4 µM (inactive) | 3.61 µM (inactive) | 4.35 µM (inactive) | 1.82 µM (inactive) | 20.7 µM (inactive) | 8.87 µM (inactive) |  | 19.1 µM (inactive) | 2.39 µM (inactive) | 4.12 µM (inactive) | 1.99 µM (inactive) | 3.12 µM (inactive) | 2.6 µM (inactive) | 13.4 µM (inactive) | 1.87 µM (inactive) | 3.48 µM (inactive) | 1.77 µM (inactive)
CN(c1ccccc1)c1nc(=[N+]2CCCC2)ss1.[O-][Cl+3]([O-])([O-])[O-] | > 100 µM (inactive) | > 100 µM (inactive) | > 100 µM (inactive) | 11.1 µM (inactive) | > 100 µM (inactive) | > 100 µM (inactive) | 87.7 µM |  |  | > 100 µM (inactive) | > 100 µM (inactive) | > 100 µM (inactive) | > 100 µM (inactive) | > 100 µM (inactive) |  | > 100 µM (inactive) | 3.03 µM (inactive)
O=C(Cn1ccnc1[N+](=O)[O-])c1ccc(F)cc1 | > 100 µM (inactive) | > 100 µM (inactive) | > 100 µM (inactive) | > 100 µM (inactive) | > 100 µM (inactive) |  | > 100 µM | > 100 µM (inactive) | > 100 µM (inactive) | > 100 µM (inactive) | > 100 µM (inactive) | > 100 µM (inactive) | > 100 µM (inactive) | > 100 µM (inactive) | > 100 µM (inactive) | > 100 µM (inactive) | > 100 µM (inactive)
CC(=O)c1c2c(cc3c1CC1(C3)Cc3cc4c(c(C(=O)O)c3C1)CCC4)CCC2 (centres undefined) | 30.8 µM (inactive) | 35.9 µM (inactive) | 36.9 µM (inactive) | 24.7 µM (inactive) |  | 37.8 µM (inactive) |  | 36.5 µM (inactive) | 44.5 µM (inactive) | 50.7 µM (inactive) | 44.2 µM (inactive) | 40.7 µM (inactive) | 29.4 µM (inactive) |  | 19.2 µM (inactive) | 45 µM (inactive) | 45.5 µM (inactive)
COC(=O)C1(c2ccc(OC)cc2)NC(c2ccccc2)C2C(=O)N(c3ccc(OC)cc3)C(=O)C21 (centres undefined) | > 100 µM (inactive) | > 100 µM (inactive) | > 100 µM (inactive) | > 100 µM (inactive) | > 100 µM (inactive) | > 100 µM (inactive) | > 100 µM |  | > 100 µM (inactive) | > 100 µM (inactive) | > 100 µM (inactive) | > 100 µM (inactive) | > 100 µM (inactive) |  | > 100 µM (inactive) | > 100 µM (inactive) | > 100 µM (inactive)
CC(Oc1ccc(OCC2CCCCC2)cc1)C(=O)NCc1ccco1 (centres undefined) | 34.9 µM (inactive) | 36.1 µM (inactive) |  |  |  | 36.6 µM (inactive) | 48.1 µM |  | 22.1 µM (inactive) | 43.7 µM (inactive) | 37.1 µM (inactive) | 35.6 µM (inactive) | 27 µM (inactive) | 28.8 µM (inactive) | 37.7 µM (inactive) | 23.6 µM (inactive) | 22.6 µM (inactive)
CC(=O)CC(=O)ON(C)C(=O)Cc1ccccc1 | > 100 µM (inactive) | > 100 µM (inactive) | > 100 µM (inactive) | > 100 µM (inactive) |  | > 100 µM (inactive) | > 100 µM | > 100 µM (inactive) | > 100 µM (inactive) | > 100 µM (inactive) | > 100 µM (inactive) | > 100 µM (inactive) | > 100 µM (inactive) | > 100 µM (inactive) | > 100 µM (inactive) | > 100 µM (inactive) | > 100 µM (inactive)
O=C1CN=C(c2ccccc2)c2ccncc2N1 | > 100 µM (inactive) | > 100 µM (inactive) | > 100 µM (inactive) | > 100 µM (inactive) | > 100 µM (inactive) | > 100 µM (inactive) |  | > 100 µM (inactive) | > 100 µM (inactive) | > 100 µM (inactive) | 16.2 µM (inactive) | > 100 µM (inactive) | > 100 µM (inactive) | > 100 µM (inactive) | > 100 µM (inactive) | 26.6 µM (inactive) | > 100 µM (inactive)
O=S1(=O)C[C@@H](O)[C@H](O)CS1 | > 100 µM (inactive) | > 100 µM (inactive) | > 100 µM (inactive) | > 100 µM (inactive) | > 100 µM (inactive) | > 100 µM (inactive) |  | > 100 µM (inactive) | > 100 µM (inactive) | > 100 µM (inactive) | > 100 µM (inactive) | > 100 µM (inactive) | > 100 µM (inactive) | > 100 µM (inactive) | > 100 µM (inactive) | > 100 µM (inactive) | > 100 µM (inactive)
COc1cccc(OC)c1C(=O)OCc1ccccc1 | > 100 µM (inactive) | > 100 µM (inactive) | > 100 µM (inactive) | > 100 µM (inactive) | > 100 µM (inactive) |  | > 100 µM | > 100 µM (inactive) | > 100 µM (inactive) | > 100 µM (inactive) | > 100 µM (inactive) | > 100 µM (inactive) |  | > 100 µM (inactive) | > 100 µM (inactive) | > 100 µM (inactive) | > 100 µM (inactive)
c1ccc2c(c1)[nH]c1c2ncc2[nH]c3ccccc3c21 | 4.65 µM (inactive) | 4.24 µM (inactive) | 3.73 µM (inactive) | 2.45 µM (inactive) | 12.9 µM (inactive) | 2.64 µM (inactive) | 2.25 µM | 4.31 µM (inactive) | 2.88 µM (inactive) | 5.19 µM (inactive) | 3.06 µM (inactive) | 3.64 µM (inactive) | 19.4 µM (inactive) | 14 µM (inactive) | 2.61 µM (inactive) | > 10 µM (inactive) | 
